Experimental data from PMC8286840, “Identifying SARS-CoV-2 antiviral compounds by screening for small molecule inhibitors of Nsp3 papain-like protease” (Biochemical Journal, 2021).
Structures can show the parent of a compound that is named as a salt. Where two headings read alike, the source gives them in different places.

Tests used:
[1] = target: T1, SARS-CoV-2 PLpro (nsp3 1564–1878) (Severe acute respiratory syndrome coronavirus 2, UniProt P0DTD1); experiment: biochemical; parameters: FRET-quenched peptide (Pro3) cleavage by PLpro, 10 min pre-incubation, slope over 20 min, normalised to no-compound control; conditions: low concentration screen, read-out: % of control remaining
[2] = target: T1, SARS-CoV-2 PLpro (nsp3 1564–1878); experiment: biochemical; parameters: FRET-quenched peptide (Pro3) cleavage by PLpro, 10 min pre-incubation, slope over 20 min, normalised to no-compound control; conditions: high concentration screen, read-out: % of control remaining

Cc1nn(C)c2c1C(c1ccc(C(F)(F)F)cc1)C(C#N)=C(N)O2 (stereo not drawn) [BQU57] gave a remaining activity at 1.25 µM ([1]; Well no.=7957) of 103% and a remaining activity at 3.75 µM ([2]; Well no.=7957) of 94.7%.
In the case of CC(=O)O[C@H]1C[C@@H]2CC[C@@H]3[C@H](CC[C@@]4(C)[C@H]3C[C@H]([N+]3(C)CCCCC3)[C@@H]4OC(C)=O)[C@@]2(C)C[C@@H]1[N+]1(C)CCCCC1 [Pancuronium bromide], the remaining activity at 1.25 µM ([1]; Well no.=808) is reported as 98.5% and the remaining activity at 3.75 µM ([2]; Well no.=808) is reported as 97.8%.
Cc1cn([C@@H]2C[C@@H](O)[C@H](CO)O2)c(=O)[nH]c1=O [Telbivudine] was tested, and the remaining activity at 1.25 µM ([1]; Well no.=8380) was 92.4%, the remaining activity at 1.25 µM ([1]; Well no.=8839) was 98.6% and the remaining activity at 3.75 µM ([2]; Well no.=8380) was 92.3%. For the same compound, the remaining activity at 3.75 µM ([2]; Well no.=8839) was 96.3%.
CCn1nc(C)cc1C(=O)Nc1nc2cc(C(N)=O)cc(OC)c2n1C/C=C/Cn1c(NC(=O)c2cc(C)nn2CC)nc2cc(C(N)=O)cc(OCCCN3CCOCC3)c21 [diABZI STING agonist-1 (trihydrochloride)] was tested, and the remaining activity at 1.25 µM ([1]; Well no.=8553) was 110% and the remaining activity at 3.75 µM ([2]; Well no.=8553) was 102%.
With CN1CCc2ccccc2Cc2[nH]c3ccccc3c2CC1 [LE 300] the remaining activity at 1.25 µM ([1]; Well no.=1027) was 101% and the remaining activity at 3.75 µM ([2]; Well no.=1027) was 101%.
CC1CNc2c(cccc2S(=O)(=O)N[C@@H](CCCNC(=N)N)C(=O)N2CC[C@@H](C)C[C@@H]2C(=O)O)C1 (stereo partly drawn) [Argatroban (monohydrate)] gave a remaining activity at 1.25 µM ([1]; Well no.=8454) of 103% and a remaining activity at 3.75 µM ([2]; Well no.=8454) of 101%.
Work on CCc1c(CC(N)=O)c2cc(OCCCP(=O)(O)O)ccc2n1Cc1ccccc1 [LY311727] yielded a remaining activity at 1.25 µM ([1]; Well no.=5502) of 102% and a remaining activity at 3.75 µM ([2]; Well no.=5502) of 109%.
COc1ccc2cc1Oc1ccc(cc1)C[C@H]1c3cc(c(OC)cc3CCN1C)Oc1c(OC)c(OC)c(OC)c3c1[C@H](C2)N(C)CC3 [Hernandezine] showed a remaining activity at 1.25 µM ([1]; Well no.=3151) of 100% and a remaining activity at 3.75 µM ([2]; Well no.=3151) of 101%.
CCCCNc1cc(C(=O)O)cc(S(N)(=O)=O)c1Oc1ccccc1 [Bumetanide] gave a remaining activity at 1.25 µM ([1]; Well no.=29) of 103%, a remaining activity at 1.25 µM ([1]; Well no.=1909) of 100% and a remaining activity at 3.75 µM ([2]; Well no.=29) of 96.8%. It also gave a remaining activity at 3.75 µM ([2]; Well no.=1909) of 99.1%.
CCNC(=O)[C@H]1O[C@@H](n2cnc3c(N)nc(NCCc4ccc(CCC(=O)O)cc4)nc32)[C@H](O)[C@@H]1O [CGS 21680 (Hydrochloride)] was tested, and the remaining activity at 1.25 µM ([1]; Well no.=7001) was 99.7%, the remaining activity at 1.25 µM ([1]; Well no.=8417) was 95.9% and the remaining activity at 3.75 µM ([2]; Well no.=7001) was 95.1%. It also gave a remaining activity at 3.75 µM ([2]; Well no.=8417) of 94.7%.
Work on CO[C@@H]1[C@H](O)C[C@@H](O[C@@H]2C[C@H](Oc3cc4cc5c(c(O)c4c(O)c3C)C(=O)[C@@H](O[C@H]3C[C@@H](O[C@H]4C[C@@H](O[C@H]6C[C@](C)(O)[C@@H](OC(C)=O)[C@H](C)O6)[C@H](O)[C@@H](C)O4)[C@H](O)[C@@H](C)O3)[C@H]([C@H](OC)C(=O)[C@@H](O)[C@@H](C)O)C5)O[C@H](C)[C@@H]2OC(C)=O)O[C@@H]1C [Chromomycin A3] yielded a remaining activity at 1.25 µM ([1]; Well no.=3579) of 103% and a remaining activity at 3.75 µM ([2]; Well no.=3579) of 107%.
Work on CC(ONC(=O)c1cc(C(F)(F)F)cc(C(F)(F)F)c1)C(=O)Nc1ccc(Cl)cc1 (stereo not drawn) [CCG-1423] yielded a remaining activity at 1.25 µM ([1]; Well no.=7811) of 99.2% and a remaining activity at 3.75 µM ([2]; Well no.=7811) of 101%.
COC(=O)[C@H](Cc1c[nH]c2ccccc12)N(Cc1ccccc1)Cc1ccccc1 [TRPM8 antagonist 2] gave a remaining activity at 1.25 µM ([1]; Well no.=7732) of 95.3% and a remaining activity at 3.75 µM ([2]; Well no.=7732) of 97.5%.
For CCCC[N+]1(C)[C@@H]2C[C@@H](OC(=O)[C@H](CO)c3ccccc3)C[C@H]1[C@@H]1O[C@@H]12 (stereo partly drawn) [Scopolamine N-butylbromide], the remaining activity at 1.25 µM ([1]; Well no.=3355) was 99.9% and the remaining activity at 3.75 µM ([2]; Well no.=3355) was 98.9%.
With CCCCCC(O)CCCC(=O)O (stereo not drawn) [5-hydroxydecanoic acid sodium] the remaining activity at 1.25 µM ([1]; Well no.=714) was 88.7% and the remaining activity at 3.75 µM ([2]; Well no.=714) was 85.9%.
COc1ccc(OC)c(C2C(C#N)=C(N)Oc3n[nH]c(-c4ccc5ccccc5c4)c32)c1 (stereo not drawn) [RBC8] gave a remaining activity at 1.25 µM ([1]; Well no.=7809) of 105% and a remaining activity at 3.75 µM ([2]; Well no.=7809) of 113%.
In the case of CCCCCCCC/C=C/CCCCCCCC(=O)OC[C@H]1O[C@@H](n2ccc(N)nc2=O)[C@@H](O)[C@@H]1O [Elacytarabine], the remaining activity at 1.25 µM ([1]; Well no.=7716) is reported as 105% and the remaining activity at 3.75 µM ([2]; Well no.=7716) is reported as 110%.
With Cc1ccc(NC(=O)CCCCCC(=O)Nc2ccccc2N)cc1 [Pimelic Diphenylamide 106 (analog)] the remaining activity at 1.25 µM ([1]; Well no.=8230) was 104% and the remaining activity at 3.75 µM ([2]; Well no.=8230) was 102%.
CN1C(=O)C[C@H](C(=O)O)[C@H]1c1cccnc1 [Trans-4-Cotininecarboxylic acid] was tested, and the remaining activity at 1.25 µM ([1]; Well no.=3200) was 95.4% and the remaining activity at 3.75 µM ([2]; Well no.=3200) was 97.7%.
For Cc1c(C)c2c(c(C)c1O)CCC(C)(CN1CCN(c3cc(N4CCCC4)nc(N4CCCC4)n3)CC1)O2 (stereo not drawn) [U-83836 dihydrochloride], the remaining activity at 1.25 µM ([1]; Well no.=1284) was 105% and the remaining activity at 3.75 µM ([2]; Well no.=1284) was 106%.
Nc1[nH]cnc2ncnc1-2 [Adenine] showed a remaining activity at 1.25 µM ([1]; Well no.=5004) of 108%, a remaining activity at 1.25 µM ([1]; Well no.=7253) of 101% and a remaining activity at 3.75 µM ([2]; Well no.=5004) of 107%. For the same compound, the remaining activity at 3.75 µM ([2]; Well no.=7253) was 98.1%.
NC(N)=NC(N)=Nc1ccccc1 [1-Phenylbiguanide] gave a remaining activity at 1.25 µM ([1]; Well no.=1263) of 102% and a remaining activity at 3.75 µM ([2]; Well no.=1263) of 102%.
CNc1nc(NCc2ccc(NS(C)(=O)=O)cc2Cl)cc(-c2ccccn2)n1 [TC-G-1008] gave a remaining activity at 1.25 µM ([1]; Well no.=7769) of 98.1% and a remaining activity at 3.75 µM ([2]; Well no.=7769) of 95.1%.
COc1cc2c(cc1O)CCN[C@@H]2C [Salsoline] gave a remaining activity at 1.25 µM ([1]; Well no.=3715) of 100% and a remaining activity at 3.75 µM ([2]; Well no.=3715) of 102%.
With CCCCOc1ccc(C(=O)CCN2CCCCC2)cc1 [Dyclonine HCl] the remaining activity at 1.25 µM ([1]; Well no.=5050) was 103% and the remaining activity at 3.75 µM ([2]; Well no.=5050) was 101%.
Work on O=C(NCc1ccc2c(c1)OCO2)c1c(Cl)cccc1Cl [Alda-1] yielded a remaining activity at 1.25 µM ([1]; Well no.=5935) of 101% and a remaining activity at 3.75 µM ([2]; Well no.=5935) of 99.3%.
NS(=O)(=O)Cc1noc2ccccc12 [Zonisamide sodium] gave a remaining activity at 1.25 µM ([1]; Well no.=1390) of 98.4% and a remaining activity at 3.75 µM ([2]; Well no.=1390) of 100%.
For COc1cc(C(=O)O)ccc1NC(=O)[C@@H]1N[C@@H](CC(C)(C)C)[C@](C#N)(c2ccc(Cl)cc2F)[C@H]1c1cccc(Cl)c1F [Idasanutlin], the remaining activity at 1.25 µM ([1]; Well no.=7114) was 101%, the remaining activity at 1.25 µM ([1]; Well no.=7554) was 92.9% and the remaining activity at 3.75 µM ([2]; Well no.=7114) was 101%. It also gave a remaining activity at 3.75 µM ([2]; Well no.=7554) of 93.9%.
For CCOC(=O)C1=C(C)NC(C)=C(C(=O)OC)C1c1cccc(Cl)c1Cl (stereo not drawn) [Felodipine], the remaining activity at 1.25 µM ([1]; Well no.=521) was 106%, the remaining activity at 1.25 µM ([1]; Well no.=1757) was 99.7% and the remaining activity at 3.75 µM ([2]; Well no.=1757) was 102%.
Work on O=c1cc(-c2ccc(O)cc2)oc2cc(O)cc(O)c12 [Apigenin] yielded a remaining activity at 1.25 µM ([1]; Well no.=299) of 93.8%, a remaining activity at 1.25 µM ([1]; Well no.=3234) of 99.1% and a remaining activity at 1.25 µM ([1]; Well no.=3909) of 101%. It also gave a remaining activity at 3.75 µM ([2]; Well no.=299) of 93.2%, a remaining activity at 3.75 µM ([2]; Well no.=3234) of 94.9% and a remaining activity at 3.75 µM ([2]; Well no.=3909) of 96.7%.
